Measured values: US11203597B2, “Crystalline spirocyclic compound, a dosage form containing, a method for using in treatment of disease, and a method for recrystallizing” (Altavant Sciences GmbH, priority 2018, dated 2021)
In brackets after ≈: the same amount, converted by molar mass.

Legend:
Format in all cases: physicochemical
[1] = Solubility determination by HPLC
Description: Because of the small differences in solubilities, HPLC was used to measure the solubilities. The values were conformed to the shake-flask results. […] In alcohol, there was a difference in dissolution rate. This difference was not observed for aqueous solutions.

[2] = Competitive slurry experiments in n-heptane (XRPD); details: slurry in 10 volumes of n-heptane
Experimental: Competitive slurry experiments were performed to ascertain if Compound 1 samples of Form 1 and mixtures of Form 1 and Form 3 can be converted to Form 3. Pure Form 1 and Form 3 were also tested. First, 700 mg of Compound 1 were added in different ratios to 10 volumes of n-heptane and stirred for […] (Table 2). After 16 hours and four days, the samples were checked for polymorphic form by XRPD. […]

[3] = Stability of polymorph form by pH measurement when stirred in water
Experimental: Additional tests were performed to understand the differences between form 1 and 3. One of those tests was to check stability of polymorph form by pH measurement at several times when the different forms were stirred in water (Table 11). During the tests, any changes in polymorph form were checked.

[4] = Shake-flask solubility determination with stepwise addition of solvent
Description: The method applied was a shake-flask solubility determination with stepwise addition of the solvent until complete dissolution is observed visually.

[5] = Solubility of Compound 1, Form 3 in MTBE/n-heptane mixtures; details: organic solvent or mixture, thermodynamic from solid
Experimental: Solubility of Compound 1, Form 3
The solubility of Compound 1 was evaluated in mixtures of MTBE/n-heptane mixtures at 10° C. and 45° C. The form of the residual solids was examined by XRPD.

[6] = Thermodynamic stability of polymorphs; details: particularly at temperatures of less than 95° C., more particularly less than 80° C.

**Q.** With `CCOC(=O)[C@@H]1CC2(CCN(c3cc(O[C@H](c4ccc(Cl)cc4-c4ccccc4)C(F)(F)F)nc(N)n3)CC2)CN1` [EdA-928-63-1] as the compound, how does the “Conc. Actual” value ([1]; Ethanol Abs.) read?
**A.** 129000 µg/mL

**Q.** What does the source list for `CCOC(=O)[C@@H]1CC2(CCN(c3cc(O[C@H](c4ccc(Cl)cc4-c4ccccc4)C(F)(F)F)nc(N)n3)CC2)CN1` [ES928-60-6]?
**A.** XRPD 16 hours [2]: Form 3; XRPD 4 days [2]: Form 3

**Q.** With `CCOC(=O)[C@@H]1CC2(CCN(c3cc(O[C@H](c4ccc(Cl)cc4-c4ccccc4)C(F)(F)F)nc(N)n3)CC2)CN1` [ES928-59-3] as the compound, how does the “pH (2 hours)” value [3] read?
**A.** 8.71

**Q.** And the “pH (4 hours)” value [3]?
**A.** 8.65

**Q.** What about the “pH (7 hours)” value [3] of the same compound?
**A.** 8.32

**Q.** Which solubility ([4]; 2-methyl-tetrahydrofuran, organic solvent or mixture, thermodynamic from solid, 2-methyl-tetrahydrofuran, read-out: Solubility) does the source give for `CCOC(=O)[C@@H]1CC2(CCN(c3cc(O[C@H](c4ccc(Cl)cc4-c4ccccc4)C(F)(F)F)nc(N)n3)CC2)CN1` [Form 1, (S)-ethyl 8-(2-amino-6-((R)-1-(5-chloro-[1,1′-biphenyl]-2-yl)-2,2,2-trifluoroethoxy)pyrimidin-4-yl)-2,8-diazaspiro[4.5]decane-3-carboxylate] here?
**A.** 97 to 970 mg/mL (≈ 164 to 1640 mM)

**Q.** What about the solubility ([4]; 2-propanol) of the same compound?
**A.** 98 to 980 mg/mL

**Q.** And the solubility ([4]; I-propanol)?
**A.** 101 to 1010 mg/mL

**Q.** What about the solubility ([4]; N,N-dimethyl-acetamide, organic solvent or mixture, thermodynamic from solid, N,N-dimethyl-acetamide, read-out: Solubility) of the same compound?
**A.** 96 to 960 mg/mL (≈ 163 to 1630 mM)

**Q.** What about the solubility ([4]; acetic acid) of the same compound?
**A.** 32 to 95 mg/mL

**Q.** And the solubility ([4]; acetone, organic solvent or mixture, thermodynamic from solid, acetone, read-out: Solubility)?
**A.** 96 to 960 mg/mL (≈ 163 to 1630 mM)

**Q.** And the solubility ([4]; acetonitrile, organic solvent or mixture, thermodynamic from solid, acetonitrile, read-out: Solubility)?
**A.** 99 to 990 mg/mL (≈ 168 to 1680 mM)

**Q.** What about the solubility ([4]; dimethyl sulfoxide, organic solvent or mixture, thermodynamic from solid, dimethyl sulfoxide, read-out: Solubility) of the same compound?
**A.** 101 to 1010 mg/mL (≈ 171 to 1710 mM)

**Q.** What about the solubility ([4]; ethanol) of the same compound?
**A.** 96 to 960 mg/mL

**Q.** What about the solubility ([4]; ethyl acetate, organic solvent or mixture, thermodynamic from solid, ethyl acetate, read-out: Solubility) of the same compound?
**A.** 101 to 1010 mg/mL (≈ 171 to 1710 mM)

**Q.** What about the solubility ([4]; formic acid 99%, organic solvent or mixture, thermodynamic from solid, formic acid 99%, read-out: Solubility) of the same compound?
**A.** 97 to 970 mg/mL (≈ 164 to 1640 mM)

**Q.** What about the solubility ([4]; isopropyl acetate, organic solvent or mixture, thermodynamic from solid, isopropyl acetate, read-out: Solubility) of the same compound?
**A.** 103 to 1030 mg/mL (≈ 175 to 1750 mM)

**Q.** What about the solubility ([4]; methanol, organic solvent or mixture, thermodynamic from solid, methanol, read-out: Solubility) of the same compound?
**A.** 99 to 990 mg/mL (≈ 168 to 1680 mM)

**Q.** And the solubility ([4]; methyl isobutyl, organic solvent or mixture, thermodynamic from solid, methyl isobutyl, read-out: Solubility)?
**A.** 99 to 990 mg/mL (≈ 168 to 1680 mM)

**Q.** What about the solubility ([4]; methyl tert-butyl ether, organic solvent or mixture, thermodynamic from solid, methyl tert-butyl ether, read-out: Solubility) of the same compound?
**A.** 102 to 1020 mg/mL (≈ 173 to 1730 mM)

**Q.** And the solubility ([4]; n-heptane, organic solvent or mixture, thermodynamic from solid, n-heptane, read-out: Solubility)?
**A.** < 10.1 mg/mL

**Q.** And the solubility ([4]; tetrahydrofuran, organic solvent or mixture, thermodynamic from solid, tetrahydrofuran, read-out: Solubility)?
**A.** 97 to 970 mg/mL (≈ 164 to 1640 mM)

**Q.** What about the solubility ([4]; toluene, organic solvent or mixture, thermodynamic from solid, toluene, read-out: Solubility) of the same compound?
**A.** 98 to 980 mg/mL (≈ 166 to 1660 mM)

**Q.** And the solubility ([4]; water, thermodynamic from solid, water, read-out: Solubility)?
**A.** < 10 mg/mL

**Q.** What about the “XRPD 16 hours” value [2] of the same compound?
**A.** remained as Form 1

**Q.** And the “XRPD 4 days” value [2]?
**A.** slowly converts to Form 3

**Q.** For `CCOC(=O)[C@@H]1CC2(CCN(c3cc(O[C@H](c4ccc(Cl)cc4-c4ccccc4)C(F)(F)F)nc(N)n3)CC2)CN1` [Form 3, (S)-ethyl 8-(2-amino-6-((R)-1-(5-chloro-[1,1′-biphenyl]-2-yl)-2,2,2-trifluoroethoxy)pyrimidin-4-yl)-2,8-diazaspiro[4.5]decane-3-carboxylate], which solubility ([5]; MTBE/n-heptane 1/0, 45 °C) is on record?
**A.** > 500 mg/mL

**Q.** What about the solubility ([5]; MTBE/n-heptane 1/1, 10 °C) of the same compound?
**A.** 27.2 mg/mL (≈ 46.1 mM)

**Q.** And the solubility ([5]; MTBE/n-heptane 1/1, 45 °C)?
**A.** 89.4 mg/mL (≈ 152 mM)

**Q.** And the solubility ([5]; MTBE/n-heptane 1/2, 10 °C)?
**A.** 17.5 mg/mL (≈ 29.7 mM)

**Q.** And the solubility ([5]; MTBE/n-heptane 1/4, 10 °C)?
**A.** 6.2 mg/mL (≈ 10.5 mM)

**Q.** And the solubility ([5]; MTBE/n-heptane 1/5, 45 °C)?
**A.** 4.2 mg/mL (≈ 7.12 mM)

**Q.** And the solubility ([4]; 2-methyl-tetrahydrofuran)?
**A.** 106 to 1060 mg/mL

**Q.** What about the solubility ([4]; 2-propanol) of the same compound?
**A.** <10.1 mg/mL

**Q.** And the solubility ([4]; I-propanol)?
**A.** 35 to 104 mg/mL

**Q.** And the solubility ([4]; N,N-dimethyl-acetamide)?
**A.** 108 to 1080 mg/mL

**Q.** What about the solubility ([4]; acetic acid) of the same compound?
**A.** 104 to 1040 mg/mL

**Q.** What about the solubility ([4]; acetone) of the same compound?
**A.** 108 to 1080 mg/mL

**Q.** And the solubility ([4]; acetonitrile)?
**A.** 99 to 990 mg/mL

**Q.** What about the solubility ([4]; dimethyl sulfoxide) of the same compound?
**A.** 109 to 1090 mg/mL

**Q.** What about the solubility ([4]; ethanol) of the same compound?
**A.** 33 to 100 mg/mL

**Q.** What about the solubility ([4]; ethyl acetate) of the same compound?
**A.** 95 to 950 mg/mL

**Q.** And the solubility ([4]; formic acid 99%)?
**A.** 96 to 960 mg/mL

**Q.** And the solubility ([4]; isopropyl acetate)?
**A.** 94 to 940 mg/mL

**Q.** What about the solubility ([4]; methanol) of the same compound?
**A.** 102 to 1020 mg/mL

**Q.** What about the solubility ([4]; methyl isobutyl) of the same compound?
**A.** 100 to 1000 mg/mL

**Q.** And the solubility ([4]; methyl tert-butyl ether)?
**A.** 106 to 1060 mg/mL

**Q.** And the solubility ([4]; n-heptane)?
**A.** <9.9 mg/mL

**Q.** What about the solubility ([4]; tetrahydrofuran) of the same compound?
**A.** 99 to 990 mg/mL

**Q.** And the solubility ([4]; toluene)?
**A.** 105 to 1050 mg/mL

**Q.** And the solubility ([4]; water)?
**A.** <10.0 mg/mL

**Q.** And the “dissolution of remaining slurry in time” value ([1]; ethanol)?
**A.** dissolved completely

**Q.** What about the “thermodynamic stability compared to crystalline Form 1” value [6] of the same compound?
**A.** substantially greater thermodynamic stability

**Q.** With `CCOC(=O)[C@@H]1CC2(CCN(c3cc(O[C@H](c4ccc(Cl)cc4-c4ccccc4)C(F)(F)F)nc(N)n3)CC2)CN1` [ES928-59-1] as the compound, how does the “pH (2 hours)” value [3] read?
**A.** 8.68

**Q.** What about the “pH (4 hours)” value [3] of the same compound?
**A.** 8.22

**Q.** And the “pH (7 hours)” value [3]?
**A.** 8.05

**Q.** For `CCOC(=O)[C@@H]1CC2(CCN(c3cc(O[C@H](c4ccc(Cl)cc4-c4ccccc4)C(F)(F)F)nc(N)n3)CC2)CN1` [ES-928-62-4], which “Conc. Actual” value ([1]; Buffer pH 1.2) is on record?
**A.** 46000 µg/mL

**Q.** For `CCOC(=O)[C@@H]1CC2(CCN(c3cc(O[C@H](c4ccc(Cl)cc4-c4ccccc4)C(F)(F)F)nc(N)n3)CC2)CN1` [ES928-60-4], which “XRPD 16 hours” value [2] is on record?
**A.** Form 3

**Q.** And the “XRPD 4 days” value [2]?
**A.** Form 3
